Assay results published in PubChem BioAssay AID1259407 (Chemical Carcinogenesis Research Information System (CCRIS), 2018).
The source made the active and inactive calls. How the calls were made is not given here.

Tested on: CCRIS mutagenicity, Ames/micronucleus/aberration tests
Assay: CCRIS mutagenicity studies
[1] = Test System: AMES SALMONELLA TYPHIMURIUM, Strain/Indicator: TA98, Metabolic Activation: NONE, Method: PREINCUBATION
[2] = Test System: AMES SALMONELLA TYPHIMURIUM, Strain/Indicator: TA100, Metabolic Activation: NONE, Method: STANDARD PLATE

## ClC(Br)Br
End Point: IN VITRO CHROMOSOMAL ABERRATIONS, Test System: CHINESE HAMSTER LUNG FIBROBLAST CELLS (CHL/IU), Metabolic Activation: RAT, LIVER, S-9, PHENOBARBITAL AND 5,6-BENZOFLAVONE
  mutagenic call: inactive; negative; authors describe as weakly positive
End Point: IN VITRO CHROMOSOMAL ABERRATIONS, Test System: CHO-LB CELLS, Metabolic Activation: NONE
  mutagenic call: inactive; negative
End Point: IN VIVO MICRONUCLEUS, Test System: BONE MARROW POLYCHROMATIC ERYTHROCYTES, Species: MOUSE, Strain/Sex: DDY/MALE, Route: IP
  mutagenic call: inactive; negative
Test System: AMES SALMONELLA TYPHIMURIUM, Strain/Indicator: RSJ100, Metabolic Activation: NONE, Method: STANDARD PLATE
  mutagenic call: active; positive
Test System: AMES SALMONELLA TYPHIMURIUM, Strain/Indicator: TA98, Metabolic Activation: HAMSTER, LIVER, S-9, AROCLOR 1254 (10%), Method: PREINCUBATION
  mutagenic call: inactive; negative
Test System: AMES SALMONELLA TYPHIMURIUM, Strain/Indicator: TA98, Metabolic Activation: HAMSTER, LIVER, S-9, AROCLOR 1254, Method: PREINCUBATION
  mutagenic call: inactive; negative
[1]
  mutagenic call: inactive; negative
Test System: AMES SALMONELLA TYPHIMURIUM, Strain/Indicator: TA98, Metabolic Activation: NONE, Method: STANDARD PLATE
  mutagenic call: inactive; negative
Test System: AMES SALMONELLA TYPHIMURIUM, Strain/Indicator: TA98, Metabolic Activation: RAT, LIVER, S-9, AROCLOR 1254 (10%), Method: PREINCUBATION
  mutagenic call: inactive; negative
Test System: AMES SALMONELLA TYPHIMURIUM, Strain/Indicator: TA98, Metabolic Activation: RAT, LIVER, S-9, AROCLOR 1254, Method: PREINCUBATION
  mutagenic call: inactive; negative
Test System: AMES SALMONELLA TYPHIMURIUM, Strain/Indicator: TA98, Metabolic Activation: RAT, LIVER, S-9, AROCLOR 1254, Method: STANDARD PLATE
  mutagenic call: active; positive
Test System: AMES SALMONELLA TYPHIMURIUM, Strain/Indicator: TA100, Metabolic Activation: HAMSTER, LIVER, S-9, AROCLOR 1254 (10%), Method: PREINCUBATION
  mutagenic call: inactive; negative
Test System: AMES SALMONELLA TYPHIMURIUM, Strain/Indicator: TA100, Metabolic Activation: HAMSTER, LIVER, S-9, AROCLOR 1254, Method: PREINCUBATION
  mutagenic call: inactive; negative
Test System: AMES SALMONELLA TYPHIMURIUM, Strain/Indicator: TA100, Metabolic Activation: NONE, Method: DESICCATOR
  mutagenic call: active; positive
Test System: AMES SALMONELLA TYPHIMURIUM, Strain/Indicator: TA100, Metabolic Activation: NONE, Method: FLUCTUATION TEST
  mutagenic call: inactive; negative
Test System: AMES SALMONELLA TYPHIMURIUM, Strain/Indicator: TA100, Metabolic Activation: NONE, Method: PREINCUBATION
  mutagenic call: inactive; negative
[2]
  mutagenic call: inactive; negative
Test System: AMES SALMONELLA TYPHIMURIUM, Strain/Indicator: TA100, Metabolic Activation: RAT, LIVER, S-9, AROCLOR 1254 (10%), Method: PREINCUBATION
  mutagenic call: inactive; negative
Test System: AMES SALMONELLA TYPHIMURIUM, Strain/Indicator: TA100, Metabolic Activation: RAT, LIVER, S-9, AROCLOR 1254, Method: FLUCTUATION TEST
  mutagenic call: inactive; negative
Test System: AMES SALMONELLA TYPHIMURIUM, Strain/Indicator: TA100, Metabolic Activation: RAT, LIVER, S-9, AROCLOR 1254, Method: PREINCUBATION
  mutagenic call: inactive; negative
Test System: AMES SALMONELLA TYPHIMURIUM, Strain/Indicator: TA100, Metabolic Activation: RAT, LIVER, S-9, AROCLOR 1254, Method: STANDARD PLATE
  mutagenic call: active; positive
Test System: AMES SALMONELLA TYPHIMURIUM, Strain/Indicator: TA1535, Metabolic Activation: HAMSTER, LIVER, S-9, AROCLOR 1254 (10%), Method: PREINCUBATION
  mutagenic call: inactive; negative
Test System: AMES SALMONELLA TYPHIMURIUM, Strain/Indicator: TA1535, Metabolic Activation: HAMSTER, LIVER, S-9, AROCLOR 1254, Method: PREINCUBATION
  mutagenic call: inactive; negative
Test System: AMES SALMONELLA TYPHIMURIUM, Strain/Indicator: TA1535, Metabolic Activation: NONE, Method: PREINCUBATION
  mutagenic call: inactive; negative
Test System: AMES SALMONELLA TYPHIMURIUM, Strain/Indicator: TA1535, Metabolic Activation: NONE, Method: STANDARD PLATE
  mutagenic call: active; positive
Test System: AMES SALMONELLA TYPHIMURIUM, Strain/Indicator: TA1535, Metabolic Activation: RAT, LIVER, S-9, AROCLOR 1254 (10%), Method: PREINCUBATION
  mutagenic call: inactive; negative
Test System: AMES SALMONELLA TYPHIMURIUM, Strain/Indicator: TA1535, Metabolic Activation: RAT, LIVER, S-9, AROCLOR 1254, Method: PREINCUBATION
  mutagenic call: inactive; negative
Test System: AMES SALMONELLA TYPHIMURIUM, Strain/Indicator: TA1535, Metabolic Activation: RAT, LIVER, S-9, AROCLOR 1254, Method: STANDARD PLATE
  mutagenic call: active; positive
Test System: AMES SALMONELLA TYPHIMURIUM, Strain/Indicator: TA1537, Metabolic Activation: HAMSTER, LIVER, S-9, AROCLOR 1254 (10%), Method: PREINCUBATION
  mutagenic call: inactive; negative
Test System: AMES SALMONELLA TYPHIMURIUM, Strain/Indicator: TA1537, Metabolic Activation: HAMSTER, LIVER, S-9, AROCLOR 1254, Method: PREINCUBATION
  mutagenic call: inactive; negative
Test System: AMES SALMONELLA TYPHIMURIUM, Strain/Indicator: TA1537, Metabolic Activation: NONE, Method: PREINCUBATION
  mutagenic call: inactive; negative
Test System: AMES SALMONELLA TYPHIMURIUM, Strain/Indicator: TA1537, Metabolic Activation: NONE, Method: STANDARD PLATE
  mutagenic call: active; positive
Test System: AMES SALMONELLA TYPHIMURIUM, Strain/Indicator: TA1537, Metabolic Activation: RAT, LIVER, S-9, AROCLOR 1254 (10%), Method: PREINCUBATION
  mutagenic call: inactive; negative
Test System: AMES SALMONELLA TYPHIMURIUM, Strain/Indicator: TA1537, Metabolic Activation: RAT, LIVER, S-9, AROCLOR 1254, Method: PREINCUBATION
  mutagenic call: inactive; negative
Test System: AMES SALMONELLA TYPHIMURIUM, Strain/Indicator: TA1537, Metabolic Activation: RAT, LIVER, S-9, AROCLOR 1254, Method: STANDARD PLATE
  mutagenic call: active; positive
Test System: MOUSE LYMPHOMA, Strain/Indicator: L5178Y (TK+/TK-), Metabolic Activation: NONE, Method: MICROWELL
  mutagenic call: inactive; negative
Test System: MOUSE LYMPHOMA, Strain/Indicator: L5178Y (TK+/TK-), Metabolic Activation: NONE, Method: SUSPENSION/PLATE
  mutagenic call: active; positive
Test System: MOUSE LYMPHOMA, Strain/Indicator: L5178Y (TK+/TK-), Metabolic Activation: S-9, Method: MICROWELL
  mutagenic call: active; positive
Test System: UDS RAT HEPATOCYTES, Strain/Indicator: THY INCORP, Metabolic Activation: NONE, Method: AUTORADIOGRAPHY
  mutagenic call: inactive; negative

## CCCCCN(CCCCO)N=O
Test System: AMES SALMONELLA TYPHIMURIUM, Strain/Indicator: TA1535, Metabolic Activation: RAT, LIVER, S-9, KANECHLOR 500 OR PHENOBARBITAL, Method: LIQUID SUSPENSION
  mutagenic call: active; positive

## O=[N+]([O-])/C=C/c1ccco1
End Point: IN VITRO MICRONUCLEUS, Test System: HUMAN LYMPHOCYTES, Metabolic Activation: NONE
  mutagenic call: inactive; negative
End Point: IN VITRO MICRONUCLEUS, Test System: HUMAN LYMPHOCYTES, Metabolic Activation: S-9
  mutagenic call: inactive; negative
End Point: IN VIVO MICRONUCLEUS, Test System: BONE MARROW, Species: MOUSE, Strain/Sex: CD-1/MALE, Route: INTRAPERITONEAL
  mutagenic call: inactive; negative
[1]
  mutagenic call: inactive; negative

## C[C@H]1[C@H](O)CCC2=CC(=O)[C@]3([C@@]4(CO)CO4)O[C@@H]3[C@@]21C
[2]
  mutagenic call: active; positive
Test System: E. COLI, Strain/Indicator: WP2 UVRA, Metabolic Activation: NONE, Method: STANDARD PLATE
  mutagenic call: active; positive
